Laboratory results from PMC6941172 (Journal of medicinal chemistry, 2018).
Entries after “also recorded” stand apart in the source; their conditions may differ.

Columns and labels:
HEPG2 (liver) cells = experiment: Cytotoxicity assay; type: cell-based, human; conditions: HEPG2, up to 400 μM, 48 hours
HEK293 (kidney) cells = experiment: Cytotoxicity assay; type: cell-based, human; conditions: HEK293, up to 400 μM, 48 hours
Solubility assay = type: physicochemical; conditions: vs 8k, neutral and acidic aqueous media
[1] = Microsomal stability assay, human liver microsomes; type: in vitro ADME; conditions: for Increase in half-life (HLM) relative to parent ligand: vs respective parent (8a, 8i, 8n or 8k)
[2] = Microsomal stability assay, mouse liver microsomes; type: in vitro ADME; conditions: for Increase in half-life (MLM) relative to parent ligand: vs respective parent (8a, 8i, 8n or 8k)
GABAAR α6β3γ2 subtype = GABAAR α6β3γ2 subtype (Rattus norvegicus, UniProt P18508+P30191+P63079); experiment: Electrophysiological assay in Xenopus oocytes, modulation of GABA EC3 currents; type: cell-based
GABAAR α6β3γ2 subtype, sequence (P30191 20-453): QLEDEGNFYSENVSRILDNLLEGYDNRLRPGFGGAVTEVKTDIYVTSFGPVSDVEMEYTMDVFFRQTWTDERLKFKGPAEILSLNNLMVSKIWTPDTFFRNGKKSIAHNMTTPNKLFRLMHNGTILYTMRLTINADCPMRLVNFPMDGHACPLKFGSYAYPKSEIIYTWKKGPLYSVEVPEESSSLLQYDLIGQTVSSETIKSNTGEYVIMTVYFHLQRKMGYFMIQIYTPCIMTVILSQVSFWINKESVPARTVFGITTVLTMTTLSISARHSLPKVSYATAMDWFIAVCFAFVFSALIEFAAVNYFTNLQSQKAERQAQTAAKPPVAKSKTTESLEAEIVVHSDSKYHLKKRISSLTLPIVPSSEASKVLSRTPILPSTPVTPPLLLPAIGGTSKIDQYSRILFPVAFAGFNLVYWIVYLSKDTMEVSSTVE
GABAAR α6β3γ2 subtype, sequence (P63079 26-473): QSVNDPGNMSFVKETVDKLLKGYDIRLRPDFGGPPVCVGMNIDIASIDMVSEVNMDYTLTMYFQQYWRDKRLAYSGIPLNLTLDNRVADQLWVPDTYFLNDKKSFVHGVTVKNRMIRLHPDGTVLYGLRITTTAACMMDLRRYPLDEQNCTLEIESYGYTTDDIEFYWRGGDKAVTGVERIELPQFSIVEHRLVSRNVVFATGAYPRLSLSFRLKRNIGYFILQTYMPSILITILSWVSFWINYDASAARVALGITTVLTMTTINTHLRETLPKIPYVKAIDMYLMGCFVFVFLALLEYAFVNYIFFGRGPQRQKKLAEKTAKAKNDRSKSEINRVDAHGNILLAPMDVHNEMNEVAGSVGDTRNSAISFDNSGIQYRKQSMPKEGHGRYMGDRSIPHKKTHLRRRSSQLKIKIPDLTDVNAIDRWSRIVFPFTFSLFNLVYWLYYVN
GABAAR α6β3γ2 subtype, sequence (P18508 39-466): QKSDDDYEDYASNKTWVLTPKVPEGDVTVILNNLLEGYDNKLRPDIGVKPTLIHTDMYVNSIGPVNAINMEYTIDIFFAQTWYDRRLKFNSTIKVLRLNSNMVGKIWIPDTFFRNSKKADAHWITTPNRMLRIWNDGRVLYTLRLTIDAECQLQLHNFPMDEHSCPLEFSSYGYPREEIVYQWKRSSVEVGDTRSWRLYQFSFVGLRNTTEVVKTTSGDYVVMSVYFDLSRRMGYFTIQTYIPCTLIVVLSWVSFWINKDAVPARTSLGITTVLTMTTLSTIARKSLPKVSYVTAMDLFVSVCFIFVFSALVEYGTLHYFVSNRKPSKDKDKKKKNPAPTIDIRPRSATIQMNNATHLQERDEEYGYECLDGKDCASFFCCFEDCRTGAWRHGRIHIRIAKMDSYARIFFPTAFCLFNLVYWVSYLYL

α1-5β3γ2 receptors = experiment: Electrophysiological assay in Xenopus oocytes, other receptor subtypes; type: cell-based; conditions: two-point experiments
[3] = Pharmacokinetic study, IP 10 mg/kg, plasma and brain; type: in vivo, rat; conditions: rats
[4] = test system: BZP rat brain site of GABAARs; experiment: PDSP radioligand displacement, [3H]flunitrazepam; type: binding; conditions: [3H]flunitrazepam displacement
[5] = test system: Female Swiss Webster mice; conditions: 5 mg/kg positive control
C57BL/6 mice = experiment: Spontaneous locomotor activity assay in mice; type: in vivo, mouse; conditions: for Hyperlocomotor action: IP 3, 10 and 30 mg/kg
rats = experiment: Rotarod pilot experiment in rats; type: in vivo, rat
adult male Wistar rats = experiment: Spontaneous locomotor activity assay in rats; type: in vivo, rat
DOR = DOR (Homo sapiens, UniProt P41143); experiment: PDSP radioligand displacement, [3H]DADLE; type: binding; conditions: PDSP primary assay
DOR, sequence (P41143 whole entry): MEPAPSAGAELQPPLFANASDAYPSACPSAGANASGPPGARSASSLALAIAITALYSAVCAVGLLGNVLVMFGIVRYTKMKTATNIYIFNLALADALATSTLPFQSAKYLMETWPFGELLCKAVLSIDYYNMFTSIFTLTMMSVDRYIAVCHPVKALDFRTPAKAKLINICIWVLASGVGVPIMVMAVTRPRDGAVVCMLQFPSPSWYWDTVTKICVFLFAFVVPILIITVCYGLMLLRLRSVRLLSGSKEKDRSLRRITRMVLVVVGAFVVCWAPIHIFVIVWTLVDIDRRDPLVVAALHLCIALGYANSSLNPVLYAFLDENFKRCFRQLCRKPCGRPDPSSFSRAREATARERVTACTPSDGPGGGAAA

Dopamine D5 = Dopamine D5 (Homo sapiens, UniProt P21918); experiment: PDSP radioligand displacement, [3H]SCH233930; type: binding; conditions: [3H]SCH233930, PDSP primary assay
Dopamine D5, sequence (P21918 whole entry): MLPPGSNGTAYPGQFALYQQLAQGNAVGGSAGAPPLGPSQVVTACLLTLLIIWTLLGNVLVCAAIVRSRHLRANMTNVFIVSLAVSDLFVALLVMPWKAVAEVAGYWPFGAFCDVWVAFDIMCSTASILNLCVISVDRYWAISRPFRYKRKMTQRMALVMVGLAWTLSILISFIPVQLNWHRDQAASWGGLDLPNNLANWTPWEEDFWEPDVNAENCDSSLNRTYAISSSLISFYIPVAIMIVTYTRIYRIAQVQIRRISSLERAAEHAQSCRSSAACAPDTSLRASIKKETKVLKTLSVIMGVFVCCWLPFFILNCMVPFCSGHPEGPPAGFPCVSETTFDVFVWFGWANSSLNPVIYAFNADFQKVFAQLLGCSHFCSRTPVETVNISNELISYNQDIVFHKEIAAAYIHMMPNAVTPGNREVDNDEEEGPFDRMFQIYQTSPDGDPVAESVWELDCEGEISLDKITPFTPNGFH

COc1ccc(-n2nc3c4cc(Cl)ccc4[nH]cc-3c2=O)cn1 [Compound 13e, 8-Chloro-2-(6-methoxypyridin-3-yl)-2,5-dihydro-3H-pyrazolo[4,3-c]quinolin-3-one]
Cytotoxicity / cell viability (HEPG2 (liver) cells): no impact of cell viability | Cytotoxicity / cell viability (HEK293 (kidney) cells): no impact of cell viability | Decrease in water solubility (Solubility assay): ~10 fold | Increase in half-life (HLM) relative to parent ligand [1]: nearly four-fold | Increase in half-life (MLM) relative to parent ligand [2]: two-fold

[2H]C([2H])([2H])Oc1ccc2c3nn(-c4ccc(OC)nc4)c(=O)c-3c[nH]c2c1 [Compound 13c, 7-Methoxy-d3-2-(6-methoxypyridin-3-yl)-2,5-dihydro-3H-pyrazolo[4,3-c]quinolin-3-one]
Cytotoxicity / cell viability (HEPG2 (liver) cells): no impact of cell viability | Cytotoxicity / cell viability (HEK293 (kidney) cells): no impact of cell viability | Efficacy / activity at the α6β3γ2 subtype (in words) (GABAAR α6β3γ2 subtype): retained some efficacy | Activity at α1-5β3γ2 receptors (α1-5β3γ2 receptors): lack of activity | Brain AUC0-12 as % of that obtained with 8b [3]: 45% | Brain AUC0-12 as % of that obtained with 8c [3]: 36% | Brain AUC0-12 as % of that obtained with 8d [3]: 55% | Brain concentration (Cmax) compared with parent 8a [3]: considerably less

COc1ccc(-n2nc3c4ccc(Br)cc4[nH]cc-3c2=O)cn1 [Compound 13g, 7-Bromo-2-(6-methoxypyridin-3-yl)-2,5-dihydro-3H-pyrazolo[4,3-c]quinolin-3-one]
Cytotoxicity / cell viability (HEPG2 (liver) cells): no impact of cell viability | Cytotoxicity / cell viability (HEK293 (kidney) cells): no impact of cell viability | Increase in half-life (HLM) relative to parent ligand [1]: seven-fold | Increase in half-life (MLM) relative to parent ligand [2]: seven-fold

[2H]C([2H])([2H])Oc1ccccc1-n1nc2c3ccc(Br)cc3[nH]cc-2c1=O [Compound 8q, 7-Bromo-2-(2-methoxy-d3-phenyl)-2,5-dihydro-3H-pyrazolo[4,3-c]quinolin-3-one]
Binding to the BZP rat brain site (in words) [4]: significantly less binding; also recorded: significantly reduced affinity

CN1C(=O)CN=C(c2ccccc2)c2cc(Cl)ccc21 [diazepam]
Rotarod motor impairment [5]: greatest impairment of sensorimotor steadiness at 10 minutes

[2H]C([2H])([2H])Oc1ccc(-n2nc3c4ccc(OC)cc4[nH]cc-3c2=O)cc1 [Compound 8b, 7-Methoxy-2-(4-methoxy-d3-phenyl)-2,5-dihydro-3H-pyrazolo[4,3-c]quinolin-3-one]
Hyperlocomotor effect in combination with diazepam (C57BL/6 mice; IP 10 mg/kg with diazepam 3 mg/kg IP): present | Hyperlocomotor action (C57BL/6 mice): induced a hyperlocomotor action | Brain concentration (Cmax) compared with parent 8a [3]: almost two-fold increase | Free (unbound) brain concentrations [3]: ~100 nM | Motor coordination and balance on the rotarod (rats; IP doses as high as 55 mg/kg): retained | Increase in half-life (HLM) relative to parent ligand [1]: 2.5 fold | Hyperlocomotor response (adult male Wistar rats; IP 10 mg/kg, first experiment (Figure 11A)): induced a hyperlocomotor response | Hyperlocomotor response (adult male Wistar rats; IP 10 mg/kg, repeated experiment (Figure 11C)): did not reach statistical significance | Hyperlocomotor response (adult male Wistar rats; IP 3 and 10 mg/kg, third experiment (Figure 11E)): present | Increase in half-life (MLM) relative to parent ligand [2]: three-fold

COc1ccc(-n2nc3c4cnc(OC)cc4[nH]cc-3c2=O)cc1 [Compound 13i, 7-Methoxy-2-(4-methoxyphenyl)-2,5-dihydro-3H-pyrazolo[4,3-c][1,6]naphthyridin-3-one]
Efficacy / activity at the α6β3γ2 subtype (in words) (GABAAR α6β3γ2 subtype): retained some efficacy

[2H]C([2H])([2H])Oc1ccc(-n2nc3c4ccc(OC([2H])([2H])[2H])cc4[nH]cc-3c2=O)cc1 [Compound 8d, 7-Methoxy-d3-2-(4-methoxy-d3-phenyl)-2,5-dihydro-3H-pyrazolo[4,3-c]quinolin-3-one]
Brain concentration (Cmax) compared with parent 8a [3]: almost two-fold increase

[2H]C([2H])([2H])Oc1ccccc1-n1nc2c3ccc(OC)cc3[nH]cc-2c1=O [Compound 8h, 7-Methoxy-2-(2-methoxy-d3-phenyl)-2,5-dihydro-3H-pyrazolo[4,3-c]quinolin-3-one]
Binding to the BZP rat brain site (in words) [4]: significantly less binding; also recorded: significantly reduced affinity

[2H]C([2H])([2H])Oc1ccc(-n2nc3c4cc(Cl)ccc4[nH]cc-3c2=O)cc1 [Compound 8l, 8-Chloro-2-(4-methoxy-d3-phenyl)-2,5-dihydro-3H-pyrazolo[4,3-c]quinolin-3-one]
Interaction with DOR (DOR): weakly interacted

[2H]C([2H])([2H])Oc1ccc(-n2nc3c4ccc(Br)cc4[nH]cc-3c2=O)cc1 [Compound 8o, 7-Bromo-2-(4-methoxy-d3-phenyl)-2,5-dihydro-3H-pyrazolo[4,3-c]quinolin-3-one]
Efficacy / activity at the α6β3γ2 subtype (in words) (GABAAR α6β3γ2 subtype): efficacies comparable to 8n | Increase in half-life (HLM) relative to parent ligand [1]: two-fold | Increase in MLM-mediated half-life ([2]; vs parent 8n): 20%

[2H]C([2H])([2H])Oc1ccc2c3nn(-c4ccccc4OC([2H])([2H])[2H])c(=O)c-3c[nH]c2c1 [Compound 8f, 7-Methoxy-d3-2-(2-methoxy-d3-phenyl)-2,5-dihydro-3H-pyrazolo[4,3-c]quinolin-3-one]
Cytotoxicity / cell viability (HEPG2 (liver) cells): no impact on cytotoxicity | Cytotoxicity / cell viability (HEK293 (kidney) cells): no impact on cytotoxicity

COc1ccc(-n2nc3c4ccc(OC)cc4[nH]cc-3c2=O)cc1 [Compound 8a, 7-Methoxy-2-(4-methoxyphenyl)-2,5-dihydro-3H-pyrazolo[4,3-c]quinolin-3-one]
Hyperlocomotor action (C57BL/6 mice): induced a hyperlocomotor action | Activity at Dopamine D5 (Dopamine D5): showed activity

[2H]C([2H])([2H])Oc1ccc(-n2nc3c4ccc(Br)cc4[nH]cc-3c2=O)cn1 [Compound 13h, 7-Bromo-2-(6-methoxy-d3-pyridin-3-yl)-2,5-dihydro-3H-pyrazolo[4,3-c]quinolin-3-one]
Efficacy / activity at the α6β3γ2 subtype (in words) (GABAAR α6β3γ2 subtype): retained some efficacy; also recorded: efficacies comparable to 8n | Increase in metabolic stability in HLM ([1]; vs 8o): 11 fold | Increased stability (HLM half-life) ([1]; vs OCH3 N-hetero ligand 13g): three-fold | Increase in stability in MLM ([2]; vs 8o): 30 fold | Increased stability (MLM half-life) ([2]; vs OCH3 N-hetero ligand 13g): six-fold

[2H]C([2H])([2H])Oc1ccc(-n2nc3c4ccc(OC)cc4[nH]cc-3c2=O)cn1 [Compound 13b, 7-Methoxy-2-(6-methoxy-d3-pyridin-3-yl)-2,5-dihydro-3H-pyrazolo[4,3-c]quinolin-3-one]
Efficacy / activity at the α6β3γ2 subtype (in words) (GABAAR α6β3γ2 subtype): retained some efficacy

[2H]C([2H])([2H])Oc1ccc(-n2nc3c4cc(Cl)ccc4[nH]cc-3c2=O)cn1 [Compound 13f, 8-Chloro-2-(6-methoxy-d3-pyridin-3-yl)-2,5-dihydro-3H-pyrazolo[4,3-c]quinolin-3-one]
Efficacy / activity at the α6β3γ2 subtype (in words) (GABAAR α6β3γ2 subtype): much poorer efficacy | Increased half-life (HLM) ([1]; vs OCH3 N-hetero ligand 13e): 40%

[2H]C([2H])([2H])Oc1cccc(-n2nc3c4cc(Cl)ccc4[nH]cc-3c2=O)c1 [Compound 8j, 8-Chloro-2-(3-methoxy-d3-phenyl)-2,5-dihydro-3H-pyrazolo[4,3-c]quinolin-3-one]
Cytotoxicity / cell viability (HEPG2 (liver) cells): no impact on cytotoxicity | Cytotoxicity / cell viability (HEK293 (kidney) cells): no impact on cytotoxicity | Efficacy / activity at the α6β3γ2 subtype (in words) (GABAAR α6β3γ2 subtype): poorer efficacy | Increase in half-life (HLM) relative to parent ligand [1]: three-fold | Increase in half-life (MLM) relative to parent ligand [2]: two-fold

[2H]C([2H])([2H])Oc1ccccc1-n1nc2c3cc(Cl)ccc3[nH]cc-2c1=O [Compound 8m, 8-Chloro-2-(2-methoxy-d3-phenyl)-2,5-dihydro-3H-pyrazolo[4,3-c]quinolin-3-one]
Cytotoxicity / cell viability (HEPG2 (liver) cells): no impact on cytotoxicity | Cytotoxicity / cell viability (HEK293 (kidney) cells): no impact on cytotoxicity | Efficacy / activity at the α6β3γ2 subtype (in words) (GABAAR α6β3γ2 subtype): completely inactive; also recorded: no activity; also recorded: almost no efficacy | Motor coordination and balance on the rotarod (rats; IP doses as high as 60 mg/kg): retained | Binding to the BZP rat brain site (in words) [4]: reasonable binding affinity

[2H]C([2H])([2H])Oc1cccc(-n2nc3c4ccc(OC([2H])([2H])[2H])cc4[nH]cc-3c2=O)c1 [Compound 8e, 7-Methoxy-d3-2-(3-methoxy-d3-phenyl)-2,5-dihydro-3H-pyrazolo[4,3-c]quinolin-3-one]
Cytotoxicity / cell viability (HEPG2 (liver) cells): no impact on cytotoxicity | Cytotoxicity / cell viability (HEK293 (kidney) cells): no impact on cytotoxicity

[2H]C([2H])([2H])Oc1ccc2c3nn(-c4ccc(OC)cc4)c(=O)c-3c[nH]c2c1 [Compound 8c, 7-Methoxy-d3-2-(4-methoxyphenyl)-2,5-dihydro-3H-pyrazolo[4,3-c]quinolin-3-one]
Brain concentration (Cmax) compared with parent 8a [3]: almost two-fold increase | Increase in half-life (HLM) relative to parent ligand [1]: three-fold | Increase in half-life (MLM) relative to parent ligand [2]: four-fold
